Values joined by “and” are separate entries in the source; they are usually repeats but may differ in a detail not shown here. Equal values may be shown once.
Experiments:
[1] = system: SERT; assay: Baboon PET imaging: brain uptake, kinetic analysis and SERT parameters; type: in vivo
Outline: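 Two isoflurane-anaesthetised adult male baboons, each radioligand tested twice (test-retest); i.v. bolus, 91 min 3D emission scan with arterial sampling, MRI-defined regions. Brain uptake as % ID g^−1, with peak time and washout; VT from one-tissue compartment model (K1/k2) using arterial plasma input.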

[2] = humans, literature; cited from earlier work
[3] = BP = VT ROI − VT CER, baboons, mean ± SD of four experiments
[4] = Mean ± SD of four experiments in two baboons
[5] = baboons, mean ± SD of four experiments
[6] = last scan 90 minutes, baboons, mean ± SD of four experiments
[7] = one-tissue compartment model, baboons, mean ± SD of four experiments

For `[11CH3]Sc1ccc([C@H]2CN3CCC[C@H]3c3ccccc32)cc1` [[^11C]McN 5652], the “Binding potential Cingulate Cortex” value [1, 3] was 5.4 ± 0.8 mL/g, the “Binding potential Hippocampus” value [1, 3] was 9.5 ± 2.3 mL/g and the “Binding potential Midbrain” value [1, 3] was 25.9 ± 6.1 mL/g. For the same molecule, the “Binding potential Occipital Cortex” value [1, 3] was 2.9 ± 1.6 mL/g, the “Binding potential Striatum” value [1, 3] was 17.6 ± 4.0 mL/g and the “Binding potential Temporal Cortex” value [1, 3] was 6.2 ± 1.8 mL/g. For the same molecule, the “Binding potential Thalamus” value [1, 3] was 28.8 ± 6.9 mL/g, the “Equilibrium specific to non-specific partition coefficient (V3″) Cingulate Cortex” value ([1]; Baboon A, single experiment) was 0.21 and 0.17 and the “Equilibrium specific to non-specific partition coefficient (V3″) Hippocampus” value ([1]; Baboon A, single experiment) was 0.41 and 0.29. For the same molecule, the “Equilibrium specific to non-specific partition coefficient (V3″) Midbrain” value ([1]; Baboon A, single experiment) was 1.16 and 0.78, the “Equilibrium specific to non-specific partition coefficient (V3″) Occipital Cortex” value ([1]; Baboon A, single experiment) was 0.13 and 0.18 and the “Equilibrium specific to non-specific partition coefficient (V3″) Striatum” value ([1]; Baboon A, single experiment) was 0.81 and 0.49. The “Equilibrium specific to non-specific partition coefficient (V3″) Temporal Cortex” value ([1]; Baboon A, single experiment) was 0.34 and 0.23, the “Equilibrium specific to non-specific partition coefficient (V3″) Thalamus” value ([1]; Baboon A, single experiment) was 1.17 and 0.82 and the “Equilibrium specific to non-specific partition coefficient (V3″) Cingulate Cortex” value ([1]; Baboon B, single experiment) was 0.20. For the same molecule, the “Equilibrium specific to non-specific partition coefficient (V3″) Hippocampus” value ([1]; Baboon B, single experiment) was 0.38 and 0.30, the “Equilibrium specific to non-specific partition coefficient (V3″) Midbrain” value ([1]; Baboon B, single experiment) was 1.00 and 0.80 and the “Equilibrium specific to non-specific partition coefficient (V3″) Occipital Cortex” value ([1]; Baboon B, single experiment) was 0.05 and 0.07. For the same molecule, the “Equilibrium specific to non-specific partition coefficient (V3″) Striatum” value ([1]; Baboon B, single experiment) was 0.66 and 0.60, the “Equilibrium specific to non-specific partition coefficient (V3″) Temporal Cortex” value ([1]; Baboon B, single experiment) was 0.18 and 0.16 and the “Equilibrium specific to non-specific partition coefficient (V3″) Thalamus” value ([1]; Baboon B, single experiment) was 1.15 and 1.00. For the same molecule, the “Equilibrium specific to non-specific partition coefficient (V3″) Cingulate Cortex” value [1, 4] was 0.19 and 0.19 ± 0.02, the “Equilibrium specific to non-specific partition coefficient (V3″) Hippocampus” value [1, 4] was 0.34 and 0.34 ± 0.06 and the “Equilibrium specific to non-specific partition coefficient (V3″) Midbrain” value [1, 4] was 0.94 and 0.94 ± 0.18. For the same molecule, the “Equilibrium specific to non-specific partition coefficient (V3″) Occipital Cortex” value [1, 4] was 0.11 and 0.11 ± 0.06, the “Equilibrium specific to non-specific partition coefficient (V3″) Striatum” value [1, 4] was 0.64 and 0.64 ± 0.13 and the “Equilibrium specific to non-specific partition coefficient (V3″) Temporal Cortex” value [1, 4] was 0.23 and 0.23 ± 0.08. The “Equilibrium specific to non-specific partition coefficient (V3″) Thalamus” value [1, 4] was 1.04 and 1.04 ± 0.16, the “K1, average of all regions and all animals” value ([1]; baboons) was 0.93 ± 0.18 mL/g/min and the “VT, average of all regions and all animals” value ([1]; baboons) was 39.7 ± 11.8 mL/g. For the same molecule, the “k2, average of all regions and all animals” value ([1]; baboons) was 0.025 ± 0.008 min⁻¹, the “Mean regional peak uptake time” value ([1]; baboons, mean of all regions) was 28 ± 12 min and the “Mean regional wash-out (% decrease between peak time and last scan)” value ([1]; baboons, mean of all regions) was 24±13%. For the same molecule, the “Regional uptake peak time Cerebellum” value [1, 5] was 15 ± 3 min, the “Regional uptake peak time Cingulate Cortex” value [1, 5] was 17 ± 3 min and the “Regional uptake peak time Hippocampus” value [1, 5] was 36 ± 8 min. For the same molecule, the “Regional uptake peak time Midbrain” value [1, 5] was 39 ± 13 min, the “Regional uptake peak time Occipital Cortex” value [1, 5] was 17 ± 3 min and the “Regional uptake peak time Striatum” value [1, 5] was 34 ± 10 min. The “Regional uptake peak time Temporal Cortex” value [1, 5] was 27 ± 7 min, the “Regional uptake peak time Thalamus” value [1, 5] was 41 ± 6 min and the “Total brain uptake at 45 min” value ([1]; baboons, region encompassing the entire brain) was 0.016±0.002 % ID g^−1. For the same molecule, the “Regional activity wash-out: % decrease from peak to last scan, Cerebellum” value [1, 6] was 44 ± 6%, the “Regional activity wash-out: % decrease from peak to last scan, Cingulate Cortex” value [1, 6] was 34 ± 3% and the “Regional activity wash-out: % decrease from peak to last scan, Hippocampus” value [1, 6] was 16 ± 3%. The “Regional activity wash-out: % decrease from peak to last scan, Midbrain” value [1, 6] was 8 ± 5%, the “Regional activity wash-out: % decrease from peak to last scan, Occipital Cortex” value [1, 6] was 34 ± 3% and the “Regional activity wash-out: % decrease from peak to last scan, Striatum” value [1, 6] was 18 ± 7%. For the same molecule, the “Regional activity wash-out: % decrease from peak to last scan, Temporal Cortex” value [1, 6] was 24 ± 6%, the “Regional activity wash-out: % decrease from peak to last scan, Thalamus” value [1, 6] was 12 ± 4% and the “K1 Cerebellum” value [1, 7] was 1.05 ± 0.20 mL/g/min. For the same molecule, the “K1 Cingulate Cortex” value [1, 7] was 1.01 ± 0.24 mL/g/min, the “K1 Hippocampus” value [1, 7] was 0.74 ± 0.12 mL/g/min and the “K1 Midbrain” value [1, 7] was 0.92 ± 0.12 mL/g/min. For the same molecule, the “K1 Occipital Cortex” value [1, 7] was 0.95 ± 0.18 mL/g/min, the “K1 Striatum” value [1, 7] was 0.95 ± 0.12 mL/g/min and the “K1 Temporal Cortex” value [1, 7] was 0.83 ± 0.19 mL/g/min. For the same molecule, the “K1 Thalamus” value [1, 7] was 1.03 ± 0.15 mL/g/min, the “K2 Cerebellum” value [1, 7] was 0.038 ± 0.007 min⁻¹ and the “K2 Cingulate Cortex” value [1, 7] was 0.031 ± 0.007 min⁻¹. For the same molecule, the “K2 Hippocampus” value [1, 7] was 0.020 ± 0.003 min⁻¹, the “K2 Midbrain” value [1, 7] was 0.017 ± 0.003 min⁻¹ and the “K2 Occipital Cortex” value [1, 7] was 0.031 ± 0.006 min⁻¹. The “K2 Striatum” value [1, 7] was 0.021 ± 0.003 min⁻¹, the “K2 Temporal Cortex” value [1, 7] was 0.025 ± 0.006 min⁻¹ and the “K2 Thalamus” value [1, 7] was 0.019 ± 0.003 min⁻¹. For the same molecule, the “VT Cerebellum (VT CER, nonspecific distribution volume)” value [1, 7] was 27.7 ± 4.0 mL/g, the “VT Cingulate Cortex” value [1, 7] was 33.1 ± 4.7 mL/g and the “VT Hippocampus” value [1, 7] was 37.2 ± 5.9 mL/g. The “VT Midbrain” value [1, 7] was 53.6 ± 9.3 mL/g, the “VT Occipital Cortex” value [1, 7] was 30.6 ± 3.9 mL/g and the “VT Striatum” value [1, 7] was 45.3 ± 7.0 mL/g. The “VT Temporal Cortex” value [1, 7] was 33.9 ± 4.2 mL/g, the “VT Thalamus” value [1, 7] was 56.5 ± 10.3 mL/g and the “Parent fraction in plasma at 30 minutes” value [2] was 59±10%.
